Measurements reported in US9695155B2, “Herbicidal substituted pyrimidinyloxy benzene compounds” (E. I. DU PONT DE NEMOURS AND COMPANY, priority 2013, dated 2017).

Legend:
barnyardgrass = test: Test B flooded paddy test; type: in vivo, Echinochloa crus-galli; settings: Flood, 250 g ai/ha; 0 to 100 scale where 0 is no effect and 100 is complete control
How it was run: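 Scores from 0 (no effect) to 100 (complete control) are visual comparisons with controls, taken 13 to 15 days after compound was applied into floodwater 3 cm deep around 2-leaf plants.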

oilseed rape = test: Test C postemergence; type: in vivo, Brassica napus; settings: for Plant response rating, Oilseed Rape / Oilseed Rape plant response rating: scale 0 to 100 (0 no effect, 100 complete control)
Source text: (§1) Seeds of plant species selected from blackgrass (Alopecurus myosuroides), Italian ryegrass (Lolium multiflorum), wheat, winter (winter wheat, Triticum aestivum), galium (catchweed bedstraw, Galium aparine), corn (Zea mays), large (Lg) crabgrass (Digitaria sanguinalis), giant foxtail (Setaria faberii), johnsongrass (Sorghum halepense), lambsquarters (Chenopodium album), morningglory (Ipomoea coccinea), yellow nutsedge (Cyperus esculentus), pigweed (Amaranthus retroflexus), ragweed (common ragweed, Ambrosia elatior), soybean (Glycine max), barnyardgrass (Echinochloa crus-galli), oilseed rape (Brassica napus), waterhemp (common waterhemp, Amaranthus rudis), kochia (Kochia scoparia), wild oat (Avena fatua), surinam grass (Brachiaria decumbens), foxtail, green (green foxtail, Setaria viridis), goosegrass (Eleusine indica), bromegrass, downy (downy bromegrass, Bromus tectorum), nightshade (eastern black nightshade, Solanum ptycanthum), cocklebur (common cocklebur, Xanthium strumarium), cupgrass, woolly (woolly cupgrass, Eriochloa villosa), bermudagrass (Cynodon dactylon), sunflower, (common oilseed sunflower, Helianthus annuus), Russian thistle (Salsola kali), and velvetleaf (Abutilon theophrasti) were planted into a blend of loam soil and sand and treated preemergence with test chemicals formulated in a non-phytotoxic solvent mixture which included a surfactant.
(§2) At the same time, plants selected from these crop and weed species and also barley, winter (winter barley, Hordeum vulgare), windgrass (Apera spica-venti), chickweed (common chickweed, Stellaria media), deadnettle (henbit deadnettle, Lamium amplexicaule), and canarygrass (littleseed canarygrass, Phalaris minor) were planted in pots containing Redi-Earth® planting medium (Scotts Company, 14111 Scottslawn Road, Marysville, Ohio 43041) comprising spaghnum peat moss, vermiculite, wetting agent and starter nutrients and treated with postemergence applications of test chemicals formulated in the same manner. Plants ranged in height from 2 to 18 cm (1- to 4-leaf stage) for postemergence treatments. Treated plants and controls were maintained in a greenhouse for 13 to 15 days, after which time all species were compared to controls and visually evaluated. Plant response ratings, summarized in Table C, are based on a scale of 0 to 100 where 0 is no effect and 100 is complete control. A dash (-) response means no test result.

ragweed = test: Test C postemergence; type: in vivo, Ambrosia elatior; settings: for Plant response rating, Ragweed / Ragweed plant response rating: scale 0 to 100 (0 no effect, 100 complete control)
Source text: as §1, §2

velvetleaf = test: Test A postemergence; type: in vivo, Abutilon theophrasti; settings: 0 to 100 scale where 0 is no effect and 100 is complete control; for Plant response rating, Velvetleaf: 500 g ai/ha; for Velvetleaf plant response rating: 125 g ai/ha
How it was run: (§3)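 Injury scores run from 0, no effect, to 100, complete control, judged by eye against untreated plants roughly 10 days after treatment. Chemicals carried a surfactant in a non-phytotoxic solvent and went onto loam–sand soil preemergence or onto one- to two-leaf seedlings postemergence.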

soybean = test: Test C postemergence; type: in vivo, Glycine max; settings: for Plant response rating, Soybean / Soybean plant response rating: scale 0 to 100 (0 no effect, 100 complete control)
Source text: as §1, §2

morningglory = test: Test C postemergence; type: in vivo, Ipomoea coccinea; settings: for Plant response rating, Morningglory / Morningglory plant response rating: scale 0 to 100 (0 no effect, 100 complete control)
How it was run: (§4)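 Injury was assessed visually against controls 13 to 15 days after application, with 0 meaning no effect and 100 full control; missing entries are shown as a dash. Preemergence sprays hit seeded loam–sand soil, postemergence sprays hit 1- to 4-leaf plants.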

large (Lg) crabgrass = test: Test A postemergence; type: in vivo, Digitaria sanguinalis; settings: 0 to 100 scale where 0 is no effect and 100 is complete control
How it was run: as §3

lambsquarters = test: Test C postemergence; type: in vivo, Chenopodium album; settings: for Plant response rating, Lambsquarters / Lambsquarters plant response rating: scale 0 to 100 (0 no effect, 100 complete control)
How it was run: as §4

wheat, winter = test: Test C postemergence; type: in vivo, Triticum aestivum; settings: for Plant response rating, Wheat / Wheat plant response rating: scale 0 to 100 (0 no effect, 100 complete control)
Source text: as §1, §2

[1] = Postemergence, 31 g ai/ha, 13 to 15 days
[2] = 16 g ai/ha, postemergence, 0 is no effect, 100 is complete control
[3] = 31 g ai/ha, postemergence, visual rating, 13 to 15 days
[4] = 125 g ai/ha, postemergence, visual rating
[5] = 8 g ai/ha, postemergence, 0 is no effect, 100 is complete control

Row | Compound | Plant response rating, Barnyardgrass (barnyardgrass) | Plant response rating, Oilseed Rape (oilseed rape; Postemergence, 62 g ai/ha) | Plant response rating, Ragweed (ragweed; Postemergence, 62 g ai/ha) | Plant response rating, Velvetleaf (velvetleaf) | Plant response rating, Soybean (soybean; Postemergence, 62 g ai/ha) | Plant response rating, Morningglory (morningglory; Postemergence, 62 g ai/ha) | Plant response rating, Crabgrass, Large (large (Lg) crabgrass; 500 g ai/ha) | Plant response rating, Lambsquarters (lambsquarters; Postemergence, 62 g ai/ha) | Plant response rating, Wheat (wheat, winter; Postemergence, 62 g ai/ha) | Plant response rating (0 to 100), Oilseed Rape (oilseed rape; [2]) | Oilseed Rape plant response rating (oilseed rape; [3]) | Plant response rating (0 to 100), Ragweed (ragweed; [2]) | Ragweed plant response rating (ragweed; [3]) | Velvetleaf plant response rating (velvetleaf) | Plant response rating (0 to 100), Soybean (soybean; [2]) | Soybean plant response rating (soybean; [3]) | Plant response rating (0 to 100), Morningglory (morningglory; [2]) | Morningglory plant response rating (morningglory; [3]) | Crabgrass, Large plant response rating (large (Lg) crabgrass; 125 g ai/ha) | Plant response rating (0 to 100), Lambsquarters (lambsquarters; [2]) | further results
1 | FC(F)Oc1cnn(-c2ccccc2Oc2ncc(Cl)cn2)c1 [Compound 98] | 35 | 95 | 30 | 100 | 60 | 65 | 100 | 80 | 5 |  |  |  |  |  |  |  |  |  |  |  | Plant response rating (0 to 100), Oilseed Rape (oilseed rape; 125 g ai/ha, postemergence): 98; Plant response rating, Oilseed Rape (oilseed rape; [1]): 80; Plant response rating (0 to 100), Ragweed (ragweed; 125 g ai/ha, postemergence): 40; Plant response rating, Ragweed (ragweed; [1]): 10; Plant response rating (0 to 100), Soybean (soybean; 125 g ai/ha, postemergence): 90; Plant response rating, Soybean (soybean; [1]): 40; Plant response rating (0 to 100), Morningglory (morningglory; 125 g ai/ha, postemergence): 85; Plant response rating, Morningglory (morningglory; [1]): 30; Plant response rating, Crabgrass, Large (large (Lg) crabgrass; 125 g ai/ha): 80; Plant response rating (0 to 100), Lambsquarters (lambsquarters; 125 g ai/ha, postemergence): 98; Plant response rating, Lambsquarters (lambsquarters; [1]): 35; Plant response rating (0 to 100), Wheat (wheat, winter; 125 g ai/ha, postemergence): 10; Plant response rating, Wheat (wheat, winter; [1]): 0
2 | FC(F)c1cccc(Oc2ncc(Br)cn2)c1-n1cc(C(F)(F)F)cn1 [Compound 163] | 0 | 60 | 35 | 100 | 80 | 65 | 90 | 85 | 0 | 45 | 30 | 10 | 35 | 100 | 35 | 50 | 20 | 50 | 30 | 60 | Plant response rating, Oilseed Rape (oilseed rape; [4]): 80; Plant response rating, Ragweed (ragweed; [4]): 60; Plant response rating, Soybean (soybean; [4]): 75; Plant response rating, Morningglory (morningglory; [4]): 90; Lambsquarters plant response rating (lambsquarters; [3]): 80; Plant response rating, Lambsquarters (lambsquarters; [4]): 95; Plant response rating (0 to 100), Wheat (wheat, winter; [2]): 0; Wheat plant response rating (wheat, winter; [3]): 0; Plant response rating, Wheat (wheat, winter; [4]): 5
3 | O=Cc1cccc(Oc2ncc(I)cn2)c1-n1cc(Br)cn1 [Compound 172] | 0 | 0 | 0 | 100 | 5 | 10 | 30 | 0 | 0 | 0 | 0 | 0 | 0 | 90 | 0 | 0 | 0 | 20 | 20 | 0 | Plant response rating (0 to 100), Oilseed Rape (oilseed rape; [5]): 0; Plant response rating (0 to 100), Ragweed (ragweed; [5]): 0; Plant response rating (0 to 100), Soybean (soybean; [5]): 0; Plant response rating (0 to 100), Morningglory (morningglory; [5]): 0; Plant response rating (0 to 100), Lambsquarters (lambsquarters; [5]): 0; Lambsquarters plant response rating (lambsquarters; [3]): 0; Plant response rating (0 to 100), Wheat (wheat, winter; [5]): 0; Plant response rating (0 to 100), Wheat (wheat, winter; [2]): 0; Wheat plant response rating (wheat, winter; [3]): 0
